Laboratory results reported in patent US20120157419A1, “METHODS AND COMPOSITIONS FOR TREATING ALZHEIMER'S DISEASE” (priority 2009, published 2012).

Legend:
[1] = system: human astrocyte cells (ccf-sttg1 cell line); experiment: Cholesterol efflux from a human astrocyte cell line; format: cell-based; conditions: for Concentration evoking maximal cholesterol efflux / Concentration of maximal effect on cholesterol efflux: 20 hr incubation, [3H]cholesterol-loaded ccf-sttg1 cells
Description: Human astrocyte cells (1×10^6 cells/ml; ccf-sttg1 cell line) were incubated in 24 plates for 24-48 hours in 10% FCS (Fetal Calf Serum) in DMEM (Dulbecco's modified Eagle's Media) in a humidified 37° C. incubator in the presence of 7.5% CO2. After the incubation time Cholesterol loading was performed by incubating the cells for 20 hr with DMEM supplemented with 30 μg/ml cholesterol, 0.5 μCi/ml of [^3H]cholesterol and 0.2% fatty-acid-free BSA (Bovine Serum Albumin). After incubation, the cells were washed four times with PBS (Phosphate Buffered Saline) containing 0.2% fatty-acid-free BSA. Cells were then incubated for 20 hr in a humidified incubator at 37° C. in the presence of 10% CO2, with or without apolipoproteins (ApoE) or FABACs (Aramchol or Steamchol) at several concentrations. The medium was collected and centrifuged at 12000 g for 5 min to remove cellular debris. The aliquots of the supernatant were taken to count the effluxed [^3H]cholesterol. The remaining cell-associated [^3H]cholesterol was determined after extraction for at least 30 min with propan-2-ol. Efflux was determined in the presence, or absence, of apolipoproteins or FABACs. FABACs were dissolved in ethanol and added to the medium at the concentrations indicated. The amount of [^3H]cholesterol in the medium and cellular extract was quantified by liquid-scintillation counting. The radioactivity released into the medium was expressed as the fraction of the total radioactive cholesterol that was present in the supernatant of each well. The percentage efflux was calculated by dividing the radioactive counts in the efflux medium by the sum of the counts in the medium and cell extract.
Astrocyte brain cells (ccf-sttg1 cell line) were maintained under the same conditions as above (Example 3) and the effect of the 2 physiological stimulants ApoE3 and ApoE4 was tested. […] FABACs evoked a maximal cholesterol efflux at the concentrations of 2 microgram/ml (Steamchol) and 5 microgram/ml (Aramchol) while the apolipoproteins reached a maximal effect at the concentration of 10 microgram/ml. Furthermore, at the above concentrations, the % of cell cholesterol removed into the medium was about 25% higher with the FABACs as compared to the apolipoproteins. Note that the control efflux induced by the medium only is equal in both sets of experiments. The efflux at concentrations of 20 microgram/ml is problematic, since cell damage occurs at this concentration.

[2] = 14C-Aramchol radioactivity in the brain of rats after oral administration; format: in vivo, male Wistar rats; conditions: for Radioactivity in brain tissues: rat brain homogenate
Description: Male Wistar rats weighing 200-250 gm received a single gavage administration of ^14C-labeled-Aramchol (suspended in 0.3 ml saline), at a target dose level of 16 μCi/ml (40 μCi/kg). Aramchol is also known as “3beta-arachidyl amido, 7α,12α-dihydroxy-5-beta-cholan-24-oic acid” or “C-20 FABAC,” an amide conjugate (at position 3 of the bile acid) of arachidic and cholic acids. Groups of 3 animals were sacrificed following gavage, using ketamine anesthesia, at 3, 12, 24 or 72 hours.
Brain tissue samples were excised, homogenized in ice-cold 5M guanidine thiocyanate/HCl, pH 8, and rotated at room temperature for 4 h. Homogenates were stored at −80° C. Brain homogenates were diluted and centrifuged, and the ^14C-label was detected by mixing samples with scintillation fluid and reading in a liquid scintillation counter.

[3] = Aramchol plasma levels after single oral ascending doses in normal human volunteers; format: in vivo
Description: To 200 μL of each plasma sample, calibrator, and QC sample were added 20 μL of 2.5 μg/mL internal standard solution in 1:1 methanol:water followed by 50 μl, of 5% acetic acid and 2 mL of methyltertbutylether. The samples were mixed on a rotating shaker for 5 minutes and centrifuged. After centrifugation, the aqueous layer of the samples was frozen and the upper (organic) layer was transferred to evaporation tubes and evaporated to dryness under a gentle stream of N2 at ˜40° C. The samples were then reconstituted in 200 μL of 5:4:1 methanol:acetonitrile:20 mM ammonium acetate, mixed, and centrifuged. 100 μL of the clear upper solution was transferred to auto-sampler vials and analyzed by UPLC-MS/MS using a Waters Acquity UPLC BEH C18, 50×2.1 mm, 1.7μ column. A sample blank (blank plasma) and reagent blank (water) were also prepared, but without internal standard added (1:1 methanol:water added instead).
Normal human volunteers (n=12) ingested Aramchol in a formulation containing sodium lauryl sulfate and carboxy methyl cellulose, in a single dose containing 30, 100, 300, or 900 mg of Aramchol. Blood was sampled at 0, 1, 3, 4, 6, 9, 12, 18, 24, 36, 48, and 72 hours following ingestion. Aramchol blood levels were measured by a mass spectroscopy-based method (Goldiner et al., J Chromatogr B Analyt Technol Biomed Life Sci 2003; 795: 35-40). Aramchol plasma levels were measurable at all doses and were dose-proportional.

Radioactivity in brain tissues ([2]; 3 hr after single gavage of 14C-labeled Aramchol (40 μCi/kg)) | Radioactivity in brain tissues ([2]; 12 hr after single gavage of 14C-labeled Aramchol (40 μCi/kg)) | Time at which brain radioactivity disappeared ([2]; single gavage, rats) | Time of peak radioactivity in brain ([2]; single gavage, rats) | Time radioactivity first detected in brain ([2]; single gavage, rats) | Aramchol plasma level at 24 hr ([3]; 24 hr after a single ingestion, human) | Aramchol plasma level at 36 hr ([3]; 36 hr after a single ingestion, human) | Time blood levels remain high ([3]; after a single administration, humans) | Aramchol plasma levels versus dose ([3]; single oral dose 30-900 mg, human plasma) | SMILES | Concentration evoking maximal cholesterol efflux [1] | Concentration of maximal effect on cholesterol efflux [1] | Potency on cholesterol efflux relative to comparator ([1]; ccf-sttg1 cells) | Cholesterol efflux at 2 μg/ml ([1]; 2 μg/ml, compared with 5-10 μg/ml) | Cholesterol efflux at 20 μg/ml ([1]; 20 μg/ml, compared with 5-10 μg/ml) | Effect on cholesterol efflux ([1]; ccf-sttg1 cells, versus medium)
– | – | – | – | – | – | – | – | – | CCCCCCCCCCCCCCCCCC(=O)N[C@H]1CC[C@@]2(C)[C@@H](C1)C[C@@H](O)[C@@H]1[C@@H]2C[C@H](O)[C@]2(C)[C@@H]([C@H](C)CCC(=O)O)CC[C@@H]12 [Steamchol, 3β-stearoylamido-7α,12α-dihydroxy-5β-cholan-24-oic acid] | 2 microgram/ml | 2 µg/mL | higher potency than Aramchol | – | – | –
0.15 cpm/mg tissue | 0.32 cpm/mg/tissue | ~24 h | 12 h | 3 h | high Aramchol levels | substantial levels | over 24 hours | dose-proportional | CCCCCCCCCCCCCCCCCCCC(=O)N[C@H]1CC[C@@]2(C)[C@@H](C1)C[C@@H](O)[C@@H]1[C@@H]2C[C@H](O)[C@]2(C)[C@@H]([C@H](C)CCC(=O)O)CC[C@@H]12 [Aramchol, 3β-arachidylamido-7α,12α, dihydroxy 5β-cholan-24-oic acid] | 5 microgram/ml | 5 to 10 µg/mL | – | Lower efflux levels | decrease in cholesterol efflux | increased cholesterol efflux
